Legend:
CD147^+ A549 cells = biological target: T1, CD147^+ A549 cells (Homo sapiens, UniProt P35613); assay: Antigen-binding activity by flow cytometry
T1 construct: endogenous in cells; host or cells: A549 (human lung cancer cell line)
T1 sequence (P35613 22-269 isoform P35613-2 limits assumed): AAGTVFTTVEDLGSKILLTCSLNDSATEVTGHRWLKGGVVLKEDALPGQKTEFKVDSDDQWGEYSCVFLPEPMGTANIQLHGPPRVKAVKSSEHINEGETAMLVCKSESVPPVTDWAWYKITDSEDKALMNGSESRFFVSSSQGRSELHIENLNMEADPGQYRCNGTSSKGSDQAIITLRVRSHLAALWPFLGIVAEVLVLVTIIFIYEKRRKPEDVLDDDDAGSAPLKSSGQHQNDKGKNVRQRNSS
Experimental: The antibody concentration is 0.001 μg/mL, 0.01 μg/mL, 0.1 μg/mL, 1 μg/ml and 10 μg/mL, respectively.
A549 cells (10^6 cells) were incubated with the Metuzumab (HcHAb18) and cHAb18 antibody, respectively, in PBS with 0.1% BSA at 4° C. for 1 h. After three washes in PBS with 0.1% BSA, cells were incubated with the FITC-conjugated Rabbit anti-Human IgG Fc Secondary Antibody (Pierce) at 4° C. in the dark for 45 min. Cells were then washed three times and suspended in PBS for analysis using a FACS Calibur flow cytometer (BD, New Jersey, U.S.). Relative antigen expression is reported as median fluorescence intensity (MFI).

A549 cells [1] = assay: ADCC assay (LDH release), human spleen effector cells; type: cell-based; details: A549 target cells
Experimental: (§1) NCI-H520, A549 and NCI-H446 cells (1×10^4 per well) were incubated with Metuzumab or cHAb18 mAb for 30 min at 37° C. Effector cells (Spleen cells) were added at the ratio of effector cells to […] (E/T) 50:1 for 24 hours at 37° C. in CO2 incubator. After centrifugation, supernatants were harvested and lactate dehydrogenase (LDH) activity were measured. Data represent mean±SD of five independent experiments.
(§2) The ADCC activity was determined by measuring lactate dehydrogenase (LDH) activity in the medium using a Cytotoxicity Detection Kit (LDH; Roche) according to the manufacturer's protocols.
(§3) In vitro ADCC assays were performed with human lung cancer cell lines (NCI-H520, A549 and NCI-H446) as target cells, and human spleen cells were used as effector cells. The target cells (1×10^4 per well) were washed with PBS and pre-incubated with antibodies solution for 30 min at 37° C. in serum-free RPMI-1640 supplemented with 0.1% BSA. The antibody solution (Metuzumab or the chimeric antibody cHAb18 mAb) that has been adjusted to a concentration of 0.001, 0.01, 0.1, 1 or 10 μg/ml was dispensed at 100 μl/well into each well that contained the target cells, Subsequently, 100 μl of the effector cells at an effector/target ratio of 50:1 was dispensed into each well, and incubated at in a carbon dioxide incubator. The cells were incubated for an additional 24 h prior to the detection of cell death by measuring lactate dehydrogenase (LDH) activity in the medium using a Cytotoxicity Detection Kit (LDH; Roche) according to the manufacturer's protocols. The ADCC-inducing activity was calculated to the following formula: Cytotoxicity (expressed as a percentage)=(experimental cell lysis−spontaneous effector lysis−spontaneous target lysis)/(maximum target lysis−spontaneous target lysis)×100%. All assays were performed in triplicate.

NCI-H446 cells = assay: as above; type: cell-based; details: NCI-H446 target cells
Experimental: as §1, §2, §3

NCI-H520 cells [2] = assay: as above; type: cell-based; details: NCI-H520 target cells
Experimental: as §1, §2, §3

A549 cells [3] = assay: Wound healing (migration) assay; type: cell-based, human
Experimental: (§4) Wound healing and transwell invasion assays were performed. For wound healing assay, 2×10^4 cells were plated in 24-well plate to form cell monolayer and allowed to reach confluence for 2 days. A wound was made in the monolayer (at time 0) by a 200 μl tip. After wash of the monolayer, Metuzumab solution was dispensed at 0.1 μg/ml, 1 μg/ml and 10 μg/ml, respectively, at 200 μl/well into each well. Saline was used as control. The distance between two sides of an open wound was measured under a CX71 microscope (Olympus). The distance between the two sides of the wound after 20-72 h of migration was divided by the distance at time 0 and represented on a graph. The experiments were performed in triplicates, the results were shown as mean±SD.

NCI-H520 cells [4] = assay: Wound healing (migration) assay; type: cell-based, human
Experimental: as §4

A549 cells [5] = assay: Transwell invasion assay; type: cell-based, human; details: 24 hours
Experimental: (§5) For invasion assay, NCI-H520 or A549 cells were serum-starved for 12 hours in DMEM containing 0.1% FBS. Serum-starved cells were trypsinized and re-suspended in DMEM containing 0.1% FBS and Metuzumab solution at 0.1 μg/ml, 1 μg/ml and 10 μg/ml, respectively. 5×10^4 cells were added to the upper chamber of each well (6.5 mm in diameter, 8-μm pore size; Corning, N.Y.) coated with […] Matrigel (BD Bioscience). Medium containing 10% FBS was placed in the lower compartment of the chamber. After 24 hours at 37° C., cells on the upper membrane surface were removed by careful wiping with a cotton swab, and the filters were fixed by treatment with 95% ethanol for 30 minutes and stained with 0.2% crystal violet solution for 30 minutes. Invasive cells adhering to the undersurface of the filter were then counted (five high-power fields/chamber) using a CX71 microscope (Olympus).

NCI-H520 cells [6] = assay: Transwell invasion assay; type: cell-based, human; details: 24 hours
Experimental: as §5

Metuzumab: human-mouse chimeric anti-CD147 IgG1, heavy chain SEQ ID NO: 4, light chain SEQ ID NO: 3, Mannose-5 glycoform lacking fucose and xylose
CD147-binding ability, Metuzumab compared with cHAb18 (CD147^+ A549 cells; FIG. 4): similar
Binding to CD147^+ A549 cells (CD147^+ A549 cells; FIG. 4, 0.001-10 μg/mL): bound
ADCC-inducing activity increase over cHAb18 mAb (A549 cells [1]): about 10 folds
EC50% (ADCC) (A549 cells [1]; effector/target 50:1, 24 h): 0.06 µg/mL
ADCC-inducing activity increase over cHAb18 mAb (NCI-H446 cells): about 10 folds
EC50% (ADCC) (NCI-H446 cells; effector/target 50:1, 24 h): 0.11 µg/mL
ADCC-inducing activity increase over cHAb18 mAb (NCI-H520 cells [2]): about 10 folds
EC50% (ADCC) (NCI-H520 cells [2]; effector/target 50:1, 24 h): 0.04 µg/mL
migration activity repressed compared to control group (A549 cells [3]; A549, 0.1 μg/ml): 24.4%
migration rate (A549 cells [3]; A549, 0.1 μg/ml (control 20.1 μm/hr)): 15.2 μm/hr
migration activity repressed compared to control group (A549 cells [3]; A549, 1 μg/ml): 38.3%
migration rate (A549 cells [3]; A549, 1 μg/ml (control 20.1 μm/hr)): 12.4 μm/hr
migration activity repressed compared to control group (A549 cells [3]; A549, 10 μg/ml): 50%
migration rate (A549 cells [3]; A549, 10 μg/ml (control 20.1 μm/hr)): 10.1 μm/hr
migration activity decrease compared to control group (NCI-H520 cells [4]; NCI-H520, 0.1 μg/ml): 20.2%
migration rate (NCI-H520 cells [4]; NCI-H520, 0.1 μg/ml (saline 18.8 μm/hr)): 15.0 μm/hr
migration activity decrease compared to control group (NCI-H520 cells [4]; NCI-H520, 1 μg/ml): 34.0%
migration rate (NCI-H520 cells [4]; NCI-H520, 1 μg/ml (saline 18.8 μm/hr)): 12.4 μm/hr
migration activity decrease compared to control group (NCI-H520 cells [4]; NCI-H520, 10 μg/ml): 44.1%
migration rate (NCI-H520 cells [4]; NCI-H520, 10 μg/ml (saline 18.8 μm/hr)): 10.5 μm/hr
invasiveness repressed compared to control groups (A549 cells [5]; A549, 0.1 μg/ml): 53.5%
invasiveness repressed compared to control groups (A549 cells [5]; A549, 1 μg/ml): 61.5%
invasiveness repressed compared to control groups (A549 cells [5]; A549, 10 μg/ml): 74.6%
invasiveness repressed compared to control groups (NCI-H520 cells [6]; NCI-H520, 0.1 μg/ml): 30.0%
invasiveness repressed compared to control groups (NCI-H520 cells [6]; NCI-H520, 1 μg/ml): 48.0%
invasiveness repressed compared to control groups (NCI-H520 cells [6]; NCI-H520, 10 μg/ml): 66.2%
